The compounds below were run against T1, full length human TPH1 (Homo sapiens, UniProt P17752) (assay: Biochemical in vitro assay using fluorescence readout (TPH1 enzyme activity)). Details: Table 1, mean where determined several times.
T1 construct: To generate the enzyme, full length human TPH1 is cloned into the plasmid pET20b(+); made in house; host or cells: E. coli
T1 sequence (P17752 1-444): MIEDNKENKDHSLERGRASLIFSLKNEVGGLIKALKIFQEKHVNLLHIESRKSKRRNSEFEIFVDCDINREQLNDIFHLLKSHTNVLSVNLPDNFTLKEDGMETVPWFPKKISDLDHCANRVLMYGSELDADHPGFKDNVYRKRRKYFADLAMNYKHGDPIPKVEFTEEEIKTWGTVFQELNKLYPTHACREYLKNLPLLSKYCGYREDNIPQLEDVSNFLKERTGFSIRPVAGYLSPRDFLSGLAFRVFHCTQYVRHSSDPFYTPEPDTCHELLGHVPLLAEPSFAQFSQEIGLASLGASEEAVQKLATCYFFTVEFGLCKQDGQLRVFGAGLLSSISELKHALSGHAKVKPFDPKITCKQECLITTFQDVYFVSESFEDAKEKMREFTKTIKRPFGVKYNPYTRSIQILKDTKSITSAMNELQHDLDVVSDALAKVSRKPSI
In short: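 E. coli-expressed full-length human TPH1 (40-80 nM), affinity- and size-exclusion-purified, incubated 60 min at 15° C. in 0.1M Tris-HCl pH 7.6 with 1 mM DTT, 0.2 mg/ml catalase, 100 μM 6-methyltetrahydropterine and 40 μM L-tryptophan. 5-Hydroxy-L-tryptophan read by fluorescence (ex 300/em 540 nm) after HClO4 quench; IC50 versus vehicle, mean where repeated.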

IC50 [nM] | SMILES
8 | CCc1nc(NS(C)(=O)=O)ccc1OCC(=O)N1CCc2nc3n(c2C1c1ccc(Cl)cc1F)CCCC3 (stereo not drawn) [Example 1.1.11, N-(5-(2-(1-(4-chloro-2-fluorophenyl)-3,4,6,7,8,9-hexahydroimidazo[1,2-a:5,4-c′]dipyridin-2(1H)-yl)-2-oxoethoxy)-6-ethylpyridin-2-yl)methanesulfonamide]
9 | CCc1nc(C(=O)NC2CC2)ccc1OCC(=O)N1CCc2nc3n(c2C1c1ccc(C)c(F)c1F)CCCC3 (stereo not drawn) [Example 1.9.10, N-cyclopropyl-5-(2-(1-(2,3-difluoro-4-methylphenyl)-3,4,6,7,8,9-hexahydroimidazo[1,2-a:5,4-c′]dipyridin-2(1H)-yl)-2-oxoethoxy)-6-ethylpicolinamide]
11 | Cc1ccc(C2c3c(nc4n3CCCC4)CCN2C(=O)COc2ccc(-c3ncco3)nc2Cl)c(F)c1 (stereo not drawn) [Example 1.2.2, 2-((2-chloro-6-(oxazol-2-yl)pyridin-3-yl)oxy)-1-(1-(2-fluoro-4-methylphenyl)-3,4,6,7,8,9-hexahydroimi-dazo[1,2-a:5,4-c′]dipyridin-2(1H)-yl)ethanone]
27 | CC(=O)N1CCn2c(nc3c2C(c2sc(C)nc2C)N(C(=O)COc2ccc(-c4ncco4)nc2Cl)CC3)C1 (stereo not drawn) [Example 5.17.1, 1-(7-acetyl-1-(2,4-dimethylthiazol-5-yl)-3,4,6,7,8,9-hexahydropyrido[4′,3′:4,5]imidazo[1,2-a]pyrazin-2(1H)-yl)-2-((2-chloro-6-(oxazol-2-yl)pyridin-3-yl)oxy)ethanone]
22 | CS(=O)(=O)Nc1ccc(OCC(=O)N2CCc3nc4n(c3C2c2ccc(C3CC3)cc2F)CCCC4)c(Cl)n1 (stereo not drawn) [Example 1.8.3, N-(6-chloro-5-(2-(1-(4-cyclopropyl-2-fluorophenyl)-3,4,6,7,8,9-hexahydroimidazo[1,2-a:5,4-c′]dipyridin-2(1H)-yl)-2-oxoethoxy)pyridin-2-yl)methanesulfonamide]
13 | CN(C)c1ccc(OCC(=O)N2CCc3nc4n(c3C2c2ccc(Cl)cc2F)CCCC4)c(Cl)n1 (stereo not drawn) [Example 1.1.21, 1-(1-(4-chloro-2-fluorophenyl)-3,4,6,7,8,9-hexahydroimidazo[1,2-a:5,4-c′]dipyridin-2(1H)-yl)-2-((2-chloro-6-(dimethylamino)pyridin-3-yl)oxy)ethan-1-one]
19 | O=C(NC1CC1)c1ccc(OCC(=O)N2CCc3nc4n(c3C2c2ccc(Cl)cc2F)CCCC4)c(Cl)n1 (stereo not drawn) [Example 1.1.6, 6-chloro-5-(2-(1-(4-chloro-2-fluorophenyl)-3,4,6,7,8,9-hexahydroimidazo[1,2-a:5,4-c′]dipyridin-2(1H)-yl)-2-oxoethoxy)-N-cyclopropylpicolinamide]
8 | O=C(COc1ccc(N2CCOCC2)cc1Cl)N1CCc2nc3n(c2C1c1ccc(C2CC2)cc1F)CCN(CC1CC1)C3 (stereo not drawn) [Example 5.2.7, 2-(2-chloro-4-morpholinophenoxy)-1-(1-(4-cyclopropyl-2-fluorophenyl)-7-(cyclopropylmethyl)-3,4,6,7,8,9-hexahydropyrido[4′,3′:4,5]imidazo[1,2-a]pyrazin-2(1H)-yl)ethanone]
34 | COCCOc1ccc(C2c3c(nc4n3CCCC4)CCN2C(=O)COc2ccc(NS(C)(=O)=O)nc2Cl)c(F)c1 (stereo not drawn) [Example 1.27.2, N-(6-chloro-5-(2-(1-(2-fluoro-4-(2-methoxyethoxy)phenyl)-3,4,6,7,8,9-hexahydroimidazo[1,2-a:5,4-c′]dipyridin-2(1H)-yl)-2-oxoethoxy)pyridin-2-yl)methanesulfonamide]
24 | O=C(COc1ccc(N2CCOCC2)cc1Cl)N1CCc2nc3n(c2C1c1ccc(C2CC2)cc1F)CCNC3 (stereo not drawn) [Example 5.2.4, 2-(2-chloro-4-morpholinophenoxy)-1-(1-(4-cyclopropyl-2-fluorophenyl)-3,4,6,7,8,9-hexahydropyrido[4′,3′:4,5]imidazo[1,2-a]pyrazin-2(1H)-yl)ethanone]
79 | CCc1nc(NS(C)(=O)=O)ccc1OCC(=O)N1CCc2nc3n(c2C1c1nc(-c2ccccc2)no1)CCCC3 (stereo not drawn) [Example 1.17.1, N-(6-ethyl-5-(2-oxo-2-(1-(3-phenyl-1,2,4-oxadiazol-5-yl)-3,4,6,7,8,9-hexahydroimidazo[1,2-a:5,4-c′]dipyridin-2(1H)-yl)ethoxy)pyridin-2-yl)methanesulfonamide]
16 | Cc1cnc(C2c3c(nc4n3CCCC4)CCN2C(=O)COc2ccc(N3CCCS3(=O)=O)nc2Cl)c(F)c1 (stereo not drawn) [Example 1.6.5, 2-((2-chloro-6-(1,1-dioxidoisothiazolidin-2-yl)pyridin-3-yl)oxy)-1-(1-(3-fluoro-5-methylpyridin-2-yl)-3,4,6,7,8,9-hexahydroimidazo[1,2-a:5,4-c′]dipyridin-2(1H)-yl)ethanone]
16 | CCc1nc(NS(C)(=O)=O)ccc1OCC(=O)N1CCc2nc3n(c2C1c1ccc(Cl)cc1F)CCS3 (stereo not drawn) [Example 4.1.3, N-(5-(2-(5-(4-chloro-2-fluorophenyl)-2,3,7,8-tetrahydrothiazolo[2′,3′:2,3]imidazo[4,5-c]pyridin-6(5H)-yl)-2-oxoethoxy)-6-ethylpyridin-2-yl)methanesulfonamide]
54 | O=C(NC1CC1)c1ccc(OCC(=O)N2CCc3nc4n(c3C2c2ccc(OCCO)cc2F)CCCC4)c(Cl)n1 (stereo not drawn) [Example 1.28.1, 6-chloro-N-cyclopropyl-5-(2-(1-(2-fluoro-4-(2-hydroxyethoxy)phenyl)-3,4,6,7,8,9-hexahydroimidazo[1,2-a:5,4-c′]dipyridin-2(1H)-yl)-2-oxoethoxy)picolinamide]
8 | CCc1nc(C(=O)NC2CC2)ccc1OCC(=O)N1CCc2nc3n(c2C1c1sc(C)nc1C)CCCC3 (stereo not drawn) [Example 1.10.15, N-cyclopropyl-5-(2-(1-(2,4-dimethylthiazol-5-yl)-3,4,6,7,8,9-hexahydroimidazo[1,2-a:5,4-c′]dipyridin-2(1H)-yl)-2-oxoethoxy)-6-ethylpicolinamide]
8 | CCc1nc(N2CCCS2(=O)=O)ccc1OCC(=O)N1CCc2nc3n(c2C1c1sc(C)nc1C)CCC3 (stereo not drawn) [Example 2.4.1, 1-(1-(2,4-dimethylthiazol-5-yl)-3,4,7,8-tetrahydro-1H-pyrrolo[2′,1′:2,3]imidazo[4,5-c]pyridin-2(6H)-yl)-2-((6-(1,1-dioxidoisothiazolidin-2-yl)-2-ethylpyridin-3-yl)oxy)ethanone]
28 | CC(=O)N1CCn2c(nc3c2C(c2ccc(C4CC4)cc2F)N(C(=O)COc2cccnc2Cl)CC3)C1 (stereo not drawn) [Example 5.2.14, 1-(7-acetyl-1-(4-cyclopropyl-2-fluorophenyl)-3,4,6,7,8,9-hexahydropyrido[4′,3′:4,5]imidazo[1,2-a]pyrazin-2(1H)-yl)-2-((2-chloropyridin-3-yl)oxy)ethanone]
13 | CN(C)C(=O)c1ccc(OCC(=O)N2CCc3nc4n(c3C2c2ccc(C3CC3)cc2F)CCOC4)c(Cl)c1 (stereo not drawn) [Example 6.2.2, 3-chloro-4-(2-(6-(4-cyclopropyl-2-fluorophenyl)-3,4,8,9-tetrahydro-1H-pyrido[4′,3′:4,5]imidazo[2,1-c][1,4]oxazin-7(6H)-yl)-2-oxoethoxy)-N,N-dimethylbenzamide]
26 | CS(=O)(=O)Nc1ccc(OCC(=O)N2CCc3nc4n(c3C2c2ccc(Cl)cc2F)CCCC4)c(Cl)n1 (stereo not drawn) [Example 1.1.3, N-(6-chloro-5-(2-(1-(4-chloro-2-fluorophenyl)-3,4,6,7,8,9-hexahydroimidazo[1,2-a:5,4-c′]dipyridin-2(1H)-yl)-2-oxoethoxy)pyridin-2-yl)methanesulfonamide]
16 | CCc1nc(C)ccc1OCC(=O)N1CCc2nc3n(c2C1c1ccc(C2CC2)cc1F)CCN(CC1CC1)C3 (stereo not drawn) [Example 5.2.6, 1-(1-(4-cyclopropyl-2-fluorophenyl)-7-(cyclopropyl-methyl)-3,4,6,7,8,9-hexahydropyrido[4′,3′:4,5]imida-zo[1,2-a]pyrazin-2(1H)-yl)-2-((2-ethyl-6-methylpyridin-3-yl)oxy)ethanone]
9 | CCc1nc(C(=O)NC2CC2)ccc1OCC(=O)N1CCc2nc3n(c2C1c1ccc(Cl)cc1F)CCCC3 (stereo not drawn) [Example 1.1.12, 5-(2-(1-(4-chloro-2-fluorophenyl)-3,4,6,7,8,9-hexahydroimidazo[1,2-a:5,4-c′]dipyridin-2(1H)-yl)-2-oxoethoxy)-N-cyclopropyl-6-ethylpicolinamide]
92 | N#Cc1ccc(OCC(=O)N2CCc3nc4n(c3C2c2ccc(C3CC3)cc2F)CCNC4)c(Cl)c1 (stereo not drawn) [Example 5.2.9, 3-chloro-4-(2-(1-(4-cyclopropyl-2-fluorophenyl)-3,4,6,7,8,9-hexahydropyrido[4′,3′:4,5]imidazo[1,2-a]pyrazin-2(1H)-yl)-2-oxoethoxy)benzonitrile]
7 | CCc1nc(C(=O)NC2CC2)ccc1OCC(=O)N1CCc2nc3n(c2[C@@H]1c1ncc(C2CC2)cc1F)CCCC3 [Example 1.3.3, (R)-N-cyclopropyl-5-(2-(1-(5-cyclopropyl-3-fluoropyridin-2-yl)-3,4,6,7,8,9-hexahydroimidazo[1,2-a:5,4-c′]dipyridin-2(1H)-yl)-2-oxoethoxy)-6-ethylpicolinamide]
456 | O=C(COc1cccnc1C(F)(F)F)N1CCc2nc3n(c2C1c1ncc(C2CC2)cc1F)CCNC3 (stereo not drawn) [Example 5.4.2, 1-(1-(5-cyclopropyl-3-fluoropyridin-2-yl)-3,4,6,7,8,9-hexahydropyrido[4′,3′:4,5]imidazo[1,2-a]pyrazin-2(1H)-yl)-2-((2-(trifluoromethyl)pyridin-3-yl)oxy)ethanone]
